# Test results reported in patent publication US8003785B2 (Takeda Pharmaceutical Company Limited, priority 2008, dated 2011).
# Biological target: T1, PLK1 (Homo sapiens, UniProt P53350)
# T1 construct: Full-length, active GST-PLK1 is purified from Sf9 insect cells; made in house; host or cells: Sf9 insect cells
# Test: Biochemical Characterization Assay: HTRF kinase assay, GST-PLK1 phosphorylation of GST-p53
# Details: GST-PLK1, GST-p53 substrate
# In short: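 HTRF read-out of p53 phosphorylation: after EDTA stop, anti-phospho-p53 antibody bound 30 min at 37 °C in HEPES pH 7 buffer, with Eu-anti-rabbit/APC-anti-GST detection. Kinase step used full-length Sf9-expressed GST-PLK1 (3 ug/mL) and E. coli GST-p53 substrate, 35 min at 37 °C.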
# T1 sequence (P53350 whole entry): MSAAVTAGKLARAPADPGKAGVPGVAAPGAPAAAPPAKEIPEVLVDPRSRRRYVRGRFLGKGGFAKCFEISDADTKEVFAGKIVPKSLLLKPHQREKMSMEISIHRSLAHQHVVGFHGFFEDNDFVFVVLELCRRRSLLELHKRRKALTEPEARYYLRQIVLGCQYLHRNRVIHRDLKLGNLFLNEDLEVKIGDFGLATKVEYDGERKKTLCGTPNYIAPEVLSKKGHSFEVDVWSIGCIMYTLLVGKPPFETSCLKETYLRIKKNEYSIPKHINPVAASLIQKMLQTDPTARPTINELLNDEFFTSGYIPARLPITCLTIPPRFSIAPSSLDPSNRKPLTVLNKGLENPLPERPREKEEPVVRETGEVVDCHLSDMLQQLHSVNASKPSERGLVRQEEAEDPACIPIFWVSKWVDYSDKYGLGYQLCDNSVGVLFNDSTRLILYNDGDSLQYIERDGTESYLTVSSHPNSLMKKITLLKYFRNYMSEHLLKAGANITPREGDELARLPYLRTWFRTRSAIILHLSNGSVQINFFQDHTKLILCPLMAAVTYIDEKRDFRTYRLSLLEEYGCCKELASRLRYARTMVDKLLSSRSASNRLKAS
row,IC50,Structure (SMILES)
1,51 to 500 nM,"CCN1C(=O)C(F)(F)CN(C2CCCC2)c2nc(Nc3ccc(C(=O)NC4CCN(C)CC4)cc3OC)ncc21 [Example I-159, 4-(9-cyclopentyl-5-ethyl-7,7-difluoro-6-oxo-6,7,8,9-tetrahydro-5H-pyrimido[4,5-b][1,4]diazepin-2-ylamino)-3-methoxy-N-(1-methyl-piperidin-4-yl)-benzamide]"
2,51 to 500 nM,"CCN1C(=O)C(F)(F)CN(C2CCCC2)c2nc(Nc3ccc(C(=O)NCCCN(C)C)cc3OC)ncc21 [Example I-160, 4-(9-cyclopentyl-5-ethyl-7,7-difluoro-6-oxo-6,7,8,9-tetra-hydro-5H-pyrimido[4,5-b][1,4]diazepin-2-ylamino)-N-(3-dimethylamino-propyl)-3-methoxy-benzamide]"
3,500 to 5000 nM,"CCN1C(=O)C(F)(F)CN(C2CCCC2)c2nc(Nc3ccc(C(=O)NC4CCOCC4)cc3OC)ncc21 [Example I-161, 4-(9-cyclopentyl-5-ethyl-7,7-difluoro-6-oxo-6,7,8,9-tetrahydro-5H-pyrimido[4,5-b][1,4]diazepin-2-ylamino)-3-methoxy-N-(tetrahydro-pyran-4-yl)-benzamide]"
4,500 to 5000 nM,"CCCN1C(=O)C(F)(F)CN(C2CCCC2)c2nc(Nc3ccc(C(N)=O)cc3OC)ncc21 [Example I-163, 4-(9-cyclopentyl-7,7-difluoro-6-oxo-5-propyl-6,7,8,9-tetrahydro-5H-pyrimido[4,5-b][1,4]diazepin-2-ylamino)-3-methoxy-benzamide]"
5,500 to 5000 nM,"CCCN1C(=O)C(F)(F)CN(C2CCCC2)c2nc(Nc3ccc(C(=O)NC)cc3OC)ncc21 [Example I-164, 4-(9-cyclopentyl-7,7-difluoro-6-oxo-5-propyl-6,7,8,9-tetrahydro-5H-pyrimido[4,5-b][1,4]diazepin-2-ylamino)-3-methoxy-N-methyl-benzamide]"
6,51 to 500 nM,"CCCN1C(=O)C(F)(F)CN(C2CCCC2)c2nc(Nc3ccc(C(=O)NC4CCN(C)CC4)cc3OC)ncc21 [Example I-165, 4-(9-cyclopentyl-7,7-difluoro-6-oxo-5-propyl-6,7,8,9-tetrahydro-5H-pyrimido[4,5-b][1,4]diazepin-2-ylamino)-3-methoxy-N-(1-methyl-piperidin-4-yl)-benzamide]"
7,51 to 500 nM,"CCCN1C(=O)C(F)(F)CN(C2CCCC2)c2nc(Nc3ccc(C(=O)NCCCN(C)C)cc3OC)ncc21 [Example I-166, 4-(9-cyclopentyl-5-propyl-7,7-difluoro-6-oxo-6,7,8,9-tetra-hydro-5H-pyrimido[4,5-b][1,4]diazepin-2-ylamino)-N-(3-dimethylamino-propyl)-3-methoxy-benzamide]"
8,500 to 5000 nM,"CCCN1C(=O)C(F)(F)CN(C2CCCC2)c2nc(Nc3ccc(C(=O)NC4CCOCC4)cc3OC)ncc21 [Example I-167, 4-(9-cyclopentyl-7,7-difluoro-6-oxo-5-propyl-6,7,8,9-tetrahydro-5H-pyrimido[4,5-b][1,4]diazepin-2-ylamino)-3-methoxy-N-(tetrahydro-pyran-4-yl)-benzamide]"
9,1 to 50 nM,"COc1cc(C(N)=O)c(F)cc1Nc1ncc2c(n1)N(C1CCCC1)CC(F)(F)C(=O)N2C [Example I-170, 4-(9-cyclopentyl-7,7-difluoro-5-methyl-6-oxo-6,7,8,9-tetrahydro-5H-pyrimido[4,5-b][1,4]diazepin-2-ylamino)-2-fluoro-5-methoxy-benzamide]"
10,1 to 50 nM,"CNC(=O)c1cc(OC)c(Nc2ncc3c(n2)N(C2CCCC2)CC(F)(F)C(=O)N3C)cc1F [Example I-171, 4-(9-cyclopentyl-7,7-difluoro-5-methyl-6-oxo-6,7,8,9-tetrahydro-5H-pyrimido[4,5-b][1,4]diazepin-2-ylamino)-2-fluoro-5-methoxy-N-methyl-benzamide]"
11,1 to 50 nM,"COc1cc(C(=O)NCCCN(C)C)c(F)cc1Nc1ncc2c(n1)N(C1CCCC1)CC(F)(F)C(=O)N2C [Example I-172, 4-(9-cyclopentyl-7,7-difluoro-5-methyl-6-oxo-6,7,8,9-tetra-hydro-5H-pyrimido[4,5-b][1,4]diazepin-2-ylamino)-N-(3-dimethylamino-propyl)-2-fluoro-5-methoxy-benzamide]"
12,1 to 50 nM,"COc1cc(C(=O)NC2CCOCC2)c(F)cc1Nc1ncc2c(n1)N(C1CCCC1)CC(F)(F)C(=O)N2C [Example I-173, 4-(9-cyclopentyl-7,7-difluoro-5-methyl-6-oxo-6,7,8,9-tetrahydro-5H-pyrimido[4,5-b][1,4]diazepin-2-ylamino)-2-fluoro-5-methoxy-N-(tetrahydropyran-4-yl)-benzamide]"
13,1 to 50 nM,"COc1cc(C(=O)NCCN(C)C)c(F)cc1Nc1ncc2c(n1)N(C1CCCC1)CC(F)(F)C(=O)N2C [Example I-174, 4-(9-cyclopentyl-7,7-difluoro-5-methyl-6-oxo-6,7,8,9-tetra-hydro-5H-pyrimido[4,5-b][1,4]diazepin-2-ylamino)-N-(3-dimethylamino-ethyl)-2-fluoro-5-methoxy-benzamide]"
14,1 to 50 nM,"COc1cc(C(=O)NC2CCNCC2)c(F)cc1Nc1ncc2c(n1)N(C1CCCC1)CC(F)(F)C(=O)N2C [Example I-178, 4-(9-cyclopentyl-7,7-difluoro-5-methyl-6-oxo-6,7,8,9-tetrahydro-5H-pyrimido[4,5-b][1,4]diazepin-2-ylamino)-2-fluoro-5-methoxy-N-piperidin-4-yl-benzamide]"
15,1 to 50 nM,"CN1CCC(NC(=O)c2ccc(Nc3ncc4c(n3)N(C3CCCC3)CC(F)(F)C(=O)N4C)c(Cl)c2)CC1 [Example I-179, 3-chloro-4-(9-cyclopentyl-7,7-difluoro-5-methyl-6-oxo-6,7,8,9-tetrahydro-5H-pyrimido[4,5-b][1,4]diazepin-2-ylamino)-N-(1-methyl-piperidin-4-yl)-benzamide]"
16,1 to 50 nM,"CC(C)Oc1cc(C(=O)NC2CCN(C)CC2)ccc1Nc1ncc2c(n1)N(C1CCCC1)CC(F)(F)C(=O)N2C [Example I-180, 4-(9-cyclopentyl-7,7-difluoro-5-methyl-6-oxo-6,7,8,9-tetrahydro-5H-pyrimido[4,5-b][1,4]diazepin-2-ylamino)-3-isopropoxy-N-(1-methyl-piperidin-4-yl)-benzamide]"
17,1 to 50 nM,"CN1CCC(NC(=O)c2ccc(Nc3ncc4c(n3)N(C3CCCC3)CC(F)(F)C(=O)N4C)c(OC(F)(F)F)c2)CC1 [Example I-181, 4-(9-cyclopentyl-7,7-difluoro-5-methyl-6-oxo-6,7,8,9-tetrahydro-5H-pyrimido[4,5-b][1,4]diazepin-2-ylamino)-N-(1-methyl-piperidin-4-yl)-3-trifluoromethoxy-benzamide]"
18,1 to 50 nM,"CN1CCC(NC(=O)c2ccc(Nc3ncc4c(n3)N(C3CCCC3)CC(F)(F)C(=O)N4C)c(F)c2)CC1 [Example I-183, 4-(9-cyclopentyl-7,7-difluoro-5-methyl-6-oxo-6,7,8,9-tetrahydro-5H-pyrimido[4,5-b][1,4]diazepin-2-ylamino)-3-fluoro-N-(1-methyl-piperidin-4-yl)-benzamide]"
19,1 to 50 nM,"Cc1cc(C(=O)NC2CCN(C)CC2)ccc1Nc1ncc2c(n1)N(C1CCCC1)CC(F)(F)C(=O)N2C [Example I-185, 4-(9-cyclopentyl-7,7-difluoro-5-methyl-6-oxo-6,7,8,9-tetrahydro-5H-pyrimido[4,5-b][1,4]diazepin-2-ylamino)-3-methyl-N-(1-methyl-piperidin-4-yl)-benzamide]"
20,1 to 50 nM,"CCN1CCC(NC(=O)c2ccc(Nc3ncc4c(n3)N(C3CCCC3)CC(F)(F)C(=O)N4C)c(C)c2)CC1 [Example I-186, 4-(9-cyclopentyl-7,7-difluoro-5-methyl-6-oxo-6,7,8,9-tetrahydro-5H-pyrimido[4,5-b][1,4]diazepin-2-ylamino)-N-(1-ethyl-piperidin-4-yl)-3-methyl-benzamide]"
21,1 to 50 nM,"Cc1cc(C(=O)NC2CCOCC2)ccc1Nc1ncc2c(n1)N(C1CCCC1)CC(F)(F)C(=O)N2C [Example I-187, 4-(9-cyclopentyl-7,7-difluoro-5-methyl-6-oxo-6,7,8,9-tetrahydro-5H-pyrimido[4,5-b][1,4]diazepin-2-ylamino)-3-methyl-N-(tetrahydro-pyran-4-yl)-benzamide]"
22,1 to 50 nM,"Cc1cc(C(=O)NCCN(C)C)ccc1Nc1ncc2c(n1)N(C1CCCC1)CC(F)(F)C(=O)N2C [Example I-188, 4-(9-cyclopentyl-7,7-difluoro-5-methyl-6-oxo-6,7,8,9-tetrahydro-5H-pyrimido[4,5-b][1,4]diazepin-2-ylamino)-N-(2-dimethylamino-ethyl)-3-methyl-benzamide]"
23,1 to 50 nM,"Cc1cc(C(=O)NCCCN(C)C)ccc1Nc1ncc2c(n1)N(C1CCCC1)CC(F)(F)C(=O)N2C [Example I-189, 4-(9-cyclopentyl-7,7-difluoro-5-methyl-6-oxo-6,7,8,9-tetrahydro-5H-pyrimido[4,5-b][1,4]diazepin-2-ylamino)-N-(3-dimethylamino-propyl)-3-methyl-benzamide]"
24,1 to 50 nM,"CNC(=O)c1ccc(Nc2ncc3c(n2)N(C2CCCC2)CC(F)(F)C(=O)N3C)c(C)c1 [Example I-190, 4-(9-cyclopentyl-7,7-difluoro-5-methyl-6-oxo-6,7,8,9-tetrahydro-5H-pyrimido[4,5-b][1,4]diazepin-2-ylamino)-3,N-dimethyl-benzamide]"
25,1 to 50 nM,"Cc1cc(C(=O)NC2CCN(C(=O)OC(C)(C)C)CC2)ccc1Nc1ncc2c(n1)N(C1CCCC1)CC(F)(F)C(=O)N2C [Example I-191, 4-[4-(9-cyclopentyl-7,7-difluoro-5-methyl-6-oxo-6,7,8,9-tetrahydro-5H-pyrimido[4,5-b][1,4]diazepin-2-ylamino)-3-methyl-benzoylamino]-piperidine-1-carboxylic acid tert-butyl ester]"

# Same assay, conditions: GST-PLK1, GST-p53 substrate, ATP
row,IC50,Structure (SMILES)
1,500 to 5000 nM,"CCN1C(=O)C(F)(F)CN(C2CCCC2)c2nc(Nc3ccc(C(=O)NC)cc3OC)ncc21 [Example I-158, 4-(9-cyclopentyl-5-ethyl-7,7-difluoro-6-oxo-6,7,8,9-tetrahydro-5H-pyrimido[4,5-b][1,4]diazepin-2-ylamino)-3-methoxy-N-methyl-benzamide]"
